The record followed here is patent US20250361230A1, “LATS Inhibitors and Uses Thereof” (The USA, as Represented by the Secretary, Dept. of Heath …, priority 2022, published 2025).

In one assay the target is AKT (Homo sapiens, UniProt P31749). As to the kind of experiment: RBC HotSpot kinase assay (33P-ATP, P81 filter-binding), AKT. The note with it: Table 28, biochemical kinase assay; read-out: AKT IC50. The format is biochemical. The gist of the method:
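Substrate in fresh buffer receives cofactors, then kinase, then compound in DMSO for a 20 min room-temperature preincubation. Reactions start with 33P-ATP and run 2 h; phosphorylation is read by P81 filter binding, and IC50 comes from a 10-point curve.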

Assay [1] deals with T1, AKT Kinase-NanoLuc fusion in HEK-293 cells (Homo sapiens, UniProt P31749).
T1 construct: host or cells: HEK-293
T1 sequence (P31749 whole entry, the tested form may be a part): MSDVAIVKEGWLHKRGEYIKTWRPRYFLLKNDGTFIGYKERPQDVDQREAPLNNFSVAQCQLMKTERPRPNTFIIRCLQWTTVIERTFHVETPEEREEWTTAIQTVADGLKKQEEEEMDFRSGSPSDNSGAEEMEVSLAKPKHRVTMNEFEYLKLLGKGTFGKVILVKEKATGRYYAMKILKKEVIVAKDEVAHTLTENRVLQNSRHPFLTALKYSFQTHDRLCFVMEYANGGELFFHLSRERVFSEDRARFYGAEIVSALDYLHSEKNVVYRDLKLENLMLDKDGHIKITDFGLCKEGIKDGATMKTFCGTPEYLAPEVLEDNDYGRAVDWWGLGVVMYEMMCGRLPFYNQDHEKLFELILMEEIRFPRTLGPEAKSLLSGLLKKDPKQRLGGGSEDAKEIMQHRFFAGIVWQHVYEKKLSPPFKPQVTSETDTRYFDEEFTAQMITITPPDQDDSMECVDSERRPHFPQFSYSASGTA
In words: NanoBRET target engagement assay in transfected HEK-293 cells, AKT. The format is cell-based. The note with it: Table 28, NanoBRET, HEK-293 cells; read-out: AKT1 (Cellular) IC50. The text has this:
The NanoBRET™ assay measures kinase engagement in real time in the context of the intact cell. The assay uses a Kinase-NanoLuc® fusion vector expressing a kinase protein to which a luciferase tag has been added, a cell-permeant fluorescent NanoBRET™ tracer, a NanoLuc® substrate, and an extracellular NanoLuc® inhibitor. Upon expression of the luciferase-tagged kinase, cells will produce a strong BRET signal only in the presence of the NanoBRET™ tracer. The extracellular NanoLuc® inhibitor ensures that the BRET signal observed emanates only from live cells. Because the BRET signal has tight distance constraints, addition of the test compound will decrease the BRET signal if the compound competes with the NanoBRET™ tracer for binding to the kinase domain. Under the appropriate tracer conditions established by the manufacturer, quantitative intracellular affinity and relative potency can then be determined using Mass Action model equations.
HEK-293 cells were purchased from ATCC. FuGENEHD Transfection Reagent, Kinase-NanoLuc® fusion plasmids, Transfection Carrier DNA, NanoBRET™ Tracers and dilution buffer, NanoBRET™ Nano-Glo Substrate, Extracellular NanoLuc® Inhibitor were obtained from Promega.
Assays were conducted following Promega assay protocol with some modifications as described further below. HEK-293 Cells were transiently transfected with Kinase-NanoLuc® Fusion Vector DNA by FuGENE HD Transfection Reagent. Test compounds were delivered into 384 well assay plate by Echo 550 (Labcyte Inc, Sunnyvale, CA). Transfected cells were harvested and mixed with NanoBRET™ Tracer Reagent and dispensed into 384 well plates and incubated at 37° C. in 5% CO2 cell culture incubator for 1 hour. The NanoBRET™ Nano-Glo Substrate plus Extracellular NanoLuc® Inhibitor Solution were added into the wells of the assay plate and incubated for 2-3 minutes at room temperature. The donor emission wavelength (460 nm) and acceptor emission wavelength (600 nm) were measured in the EnVision plate reader. The BRET Ratios were calculated. BRET Ratio=[(Acceptor sample÷Donor sample)−(Acceptor no-tracer control÷Donor no-tracer control)]. The IC50 values of compounds were calculated with Prism GraphPad program.
• 1. Transient Transfection of HEK-293 Cells NanoLuc® Fusion Vector DNA • 1). Cultivate HEK-293 cells (70-80% confluence) appropriately prior to assay. Trypsinize and collect HEK-293 cells. • 2). Prepare lipid: DNA complexes as follows: • a. Prepare a […] solution of DNA in Opti-MEM™ without serum that consists of the following ratios of carrier DNA and DNA encoding NanoLuc® fusion. 9.0 µg/mL of Transfection Carrier DNA, […] of NanoLuc® fusion vector DNA and 1 mL of Opti-MEM™ without phenol red. Mix thoroughly. • b. Add 30 μl of FuGENE HD Transfection Reagent into each milliliter of DNA mixture to form lipid: DNA complex. • c. Mix by inversion 10 times. • d. Incubate at ambient temperature for 20 minutes to allow complexes to form. • 3). In a sterile, conical tube, mix 1 part of lipid: DNA complex with 20 parts of HEK-293 cells in suspension. Mix gently by inversion 5 times. • 4). Dispense cells+lipid: DNA complex into a sterile tissue culture dish and incubate for 22-24 hours. • 2. Addition of Test Compounds (dry plate shooting): Each test compound is delivered from the compound source plate to the wells of 384-well white NBS plate by Echo 550. • 3. Preparation of Cells with NanoBRET™ Tracer Reagent • 1). Remove medium from dish with transfected HEK-293 cells via aspiration, trypsinize and allow cells to dissociate from the dish. • 2). Neutralize trypsin using medium containing serum and centrifuge at 200× g for 5 minutes to pellet the cells. Adjust the cell density to 2×10^5 cells/mL in Opti-MEM™ without phenol red. • 3). Prepare Complete 20× NanoBRET™ Tracer Reagent with Tracer Dilution Buffer. • 4). Dispense one part of Complete 20× NanoBRET™ Tracer Reagent to 20 parts of cells in the tube. Mix gently by inversion 10 times. • 5). […]
Background: Bioluminescence resonance energy transfer reports proximity on the nanometre scale.

Chain of AKT (P31749 whole entry): as the sequence (P31749 whole entry, the tested form may be a part) above

The IC50 is the concentration that gives 50% inhibition. Turning to `Cc1cc(-c2ccnc3[nH]cc(F)c23)ccc1[C@@]1(O)[C@H](C)CN(C2CCS(=O)(=O)CC2)C[C@@H]1C` [Compound 55, 4-((3R,4s, 5S)-4-(4-(3-fluoro-1H-pyrrolo[2,3-b]pyridin-4-yl)-2-methylphenyl)-4-hydroxy-3,5S-dimethylpiperidin-1-yl)tetrahydro-2H-thiopyran 1,1-dioxide], the half-maximal inhibitory concentration (IC50) on AKT came out at 62.8 nM; in assay [1] it was 19.8 µM.
Regarding `Cc1cc(-c2ccnc3[nH]cc(F)c23)cc(F)c1[C@@]1(O)[C@H](C)CN(C2CCS(=O)(=O)CC2)C[C@@H]1C` [Compound 57, 4-((3R,4s,5S)-4-(2-fluoro-4-(3-fluoro-1H-pyrrolo[2,3-b]pyridin-4-yl)-6-methylphenyl)-4-hydroxy-3,5-dimethylpiperidin-1-yl)tetrahydro-2H-thiopyran 1,1-dioxide], the IC50 was found to be 374 nM at AKT and 31.9 µM in assay [1].
As to `C[C@@H]1CN(C(=O)CN)C[C@H](C)[C@@]1(O)c1c(F)cc(-c2ccnc3[nH]cc(F)c23)cc1F` [Compound 58], the IC50 at AKT was determined as 621 nM; in assay [1], 18.2 µM.
The corresponding values for `Cc1cc(-c2ccnc3[nH]cc(F)c23)ccc1[C@@]1(O)[C@H](C)CN(C(=O)CN)C[C@@H]1C` [Compound 60, 2-amino-1-((3R,4s,5S)-4-(4-(3-fluoro-1H-pyrrolo[2,3-b]pyridin-4-yl)-2-methylphenyl)-4-hydroxy-3,5-dimethylpiperidin-1-yl)ethan-1-one] are 49.2 nM and 9.35 µM.
The corresponding values for `Cc1cc(-c2ccnc3[nH]cc(F)c23)cc(F)c1[C@@]1(O)[C@H](C)CN(C(=O)CN)C[C@@H]1C` [Compound 61, 2-amino-1-((3R,4s,5S)-4-(2-fluoro-4-(3-fluoro-1H-pyrrolo[2,3-b]pyridin-4-yl)-6-methylphenyl)-4-hydroxy-3,5-dimethylpiperidin-1-yl)ethan-1-one] are 197 nM and 3.44 µM.
The corresponding values for `C[C@@H]1CN(CC(N)=O)C[C@H](C)[C@@]1(O)c1c(F)cc(-c2ccnc3[nH]cc(F)c23)cc1F` [Compound 88, 2-((3R,4s,5S)-4-(2,6-difluoro-4-(3-fluoro-1H-pyrrolo[2,3-b]pyridin-4-yl)phenyl)-4-hydroxy-3,5-dimethylpiperidin-1-yl)acetamide] are 323 nM and more than 30 µM.
On to `C[C@@H]1CN(C2CCNCC2)C[C@H](C)[C@@]1(O)c1c(F)cc(-c2ccnc3[nH]cc(F)c23)cc1F` [Compound 90, (3R,4s,5S)-4-(2,6-difluoro-4-(3-fluoro-1H-pyrrolo[2,3-b]pyridin-4-yl)phenyl)-3,5-dimethyl-[1,4′-bipiperidin]-4-ol], for which the results for the IC50 (on AKT; in assay [1]) were 100 nM and 32.3 µM, respectively.
The matching figures for `OC1(c2ccc(-c3ccnc4[nH]cc(F)c34)cc2)CCNCC1` [Compound 110, 4-(4-(3-fluoro-1H-pyrrolo[2,3-b]pyridin-4-yl)phenyl)piperidin-4-ol]: 490 nM and 13.3 µM.
Regarding `OC1(c2ccc(-c3ccnc4[nH]ccc34)cc2)CCNCC1` [Compound 111, 4-(4-(1H-pyrrolo[2,3-b]pyridin-4-yl)phenyl)piperidin-4-ol], the IC50 was 1100 nM on AKT and more than 50 µM in assay [1].
The corresponding values for `Cc1cc(-c2ccnc3[nH]cc(F)c23)cc(F)c1C1(O)CC2(CN(C3COC3)C2)C1` [Compound 139, 6-(2-fluoro-4-(3-fluoro-1H-pyrrolo[2,3-b]pyridin-4-yl)-6-methylphenyl)-2-(oxetan-3-yl)-2-azaspiro[3.3]heptan-6-ol] are 698 nM and more than 30 µM.
The matching figures for `O=C([C@H]1CCCN1)N1CCC(O)(c2ccc(-c3ccnc4[nH]cc(F)c34)cc2)CC1` [Compound 142]: 1350 nM and 39.8 µM.
For the molecule `Fc1c[nH]c2nccc(-c3ccc(C4CCNCC4)cc3)c12` [Compound 169, 3-fluoro-4-(4-(piperidin-4-yl)phenyl)-1H-pyrrolo[2,3-b]pyridine], the IC50 on AKT worked out at 1180 nM; in assay [1], 13.3 µM.
The corresponding values for `Fc1c[nH]c2nccc(-c3ccc(C4CCNCC4)c(Cl)c3)c12` [Compound 172, 4-(3-chloro-4-(piperidin-4-yl)phenyl)-3-fluoro-1H-pyrrolo[2,3-b]pyridine] are 715 nM and more than 50 µM.
The matching figures for `Clc1c[nH]c2nccc(-c3ccc(C4CCNCC4)cc3)c12` [Compound 173, 3-chloro-4-(4-(piperidin-4-yl)phenyl)-1H-pyrrolo[2,3-b]pyridine]: 330 nM and 73.9 µM.
The corresponding values for `Cc1cc(-c2ccnc3[nH]ccc23)ccc1C1CCNCC1` [Compound 177, 4-(3-methyl-4-(piperidin-4-yl)phenyl)-1H-pyrrolo[2,3-b]pyridine] are 684 nM and 32 µM.
`c1cc(-c2ccc(C3CC4CCC(C3)N4)cc2)c2cc[nH]c2n1` (stereo not drawn) [Compound 184, 4-(4-(8-azabicyclo[3.2.1]octan-3-yl)phenyl)-1H-pyrrolo[2,3-b]pyridine]: the figures for the IC50 (at AKT; in assay [1]) were 940 nM and 27.4 µM, respectively.
The matching figures for `CC1CC(c2ccc(-c3ccnc4[nH]ccc34)cc2)CC(C)N1` (stereo not drawn) [Compound 187, 4-(4-(2,6-dimethylpiperidin-4-yl)phenyl)-1H-pyrrolo[2,3-b]pyridine]: 1440 nM and more than 50 µM.
The corresponding values for `CC1(c2ccc(-c3ccnc4[nH]ccc34)cc2)CCNCC1` [Compound 201, 4-(4-(4-methylpiperidin-4-yl)phenyl)-1H-pyrrolo[2,3-b]pyridine] are 200 nM and 7.51 µM.
The corresponding values for `Cc1cc(-c2ccnc3[nH]cc(F)c23)ccc1CN` [Compound 211, (4-(3-fluoro-1H-pyrrolo[2,3-b]pyridin-4-yl)-2-methylphenyl) methanamine] are 312 nM and 22.6 µM.
Consider `NCc1ccc(-c2ccnc3[nH]cc(-c4ccccc4)c23)cc1-c1ccccc1` [Compound 219, (5-(3-phenyl-1H-pyrrolo[2,3-b]pyridin-4-yl)-[1,1′-biphenyl]-2-yl)methanamine], for which the figures for the IC50 (on AKT; in assay [1]) were 394 nM and more than 50 µM, respectively.
The matching figures for `COC(=O)c1c[nH]c2nccc(-c3ccc(CN)cc3)c12` [Compound 223, methyl 4-(4-(aminomethyl)phenyl)-1H-pyrrolo[2,3-b]pyridine-3-carboxylate]: 13 nM and more than 50 µM.
The matching figures for `Cc1cccc(-c2c[nH]c3nccc(-c4ccc(CN)cc4)c23)c1` [Compound 230, (4-(3-(m-tolyl)-1H-pyrrolo[2,3-b]pyridin-4-yl)phenyl) methanamine]: 1200 nM and 0.752 µM.
The matching figures for `CC(C)(N)c1ccc(-c2ccnc3[nH]cc(F)c23)cc1` [Compound 238, 2-(4-(3-fluoro-1H-pyrrolo[2,3-b]pyridin-4-yl)phenyl)propan-2-amine]: 229 nM and 9.53 µM.
Take `NCc1ccc(-c2ccnc3[nH]cc(-c4cccnc4)c23)cc1` [Compound 245, (4-(3-(pyridin-3-yl)-1H-pyrrolo[2,3-b]pyridin-4-yl)phenyl) methanamine]: the IC50 amounted to 751 nM on AKT and 3.45 µM in assay [1].
